US11098056B2, “UDP glycosyltransferase inhibitors and methods of use” (GENZYME CORPORATION, priority 2018, dated 2021)
Counter-ions that a name gives are not always drawn.

What follows are compounds tested against T1, UGT8 (Homo sapiens, UniProt Q16880) (assay: In vitro sulfatide (SFT) synthesis inhibition in OE19 cells, LC-MS/MS readout). Settings: 72 hr, sulfatide by LC-MS/MS, read-out: Potency range (IC50, In-vitro SFT).
T1 construct: host or cells: OE19 cells
T1 sequence (Q16880 21-541): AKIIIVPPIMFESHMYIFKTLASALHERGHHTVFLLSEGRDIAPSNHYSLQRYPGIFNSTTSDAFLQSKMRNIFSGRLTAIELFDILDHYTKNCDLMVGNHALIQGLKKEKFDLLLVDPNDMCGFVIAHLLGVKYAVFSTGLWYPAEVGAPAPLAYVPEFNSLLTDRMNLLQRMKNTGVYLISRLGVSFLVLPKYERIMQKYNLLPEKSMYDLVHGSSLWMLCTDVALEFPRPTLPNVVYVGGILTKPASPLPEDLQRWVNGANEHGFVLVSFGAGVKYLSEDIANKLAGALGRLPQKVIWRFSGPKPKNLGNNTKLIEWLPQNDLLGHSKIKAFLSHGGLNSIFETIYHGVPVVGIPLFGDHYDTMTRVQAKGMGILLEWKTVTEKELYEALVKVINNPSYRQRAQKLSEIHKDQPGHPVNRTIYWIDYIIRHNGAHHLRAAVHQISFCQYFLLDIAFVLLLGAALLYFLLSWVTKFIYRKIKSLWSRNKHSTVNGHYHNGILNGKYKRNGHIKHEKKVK
Assay type: cell-based
In short: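 OE19 cells, 2,500/well, exposed to compound dose-downs in triplicate for 72 hr at 37° C (screening at 10 μM final). Sulfatide quantified by LC-MS/MS (C8 UPLC, isocratic, negative-ion MRM) with C17 SFT internal standard; IC50 from concentration-response curves.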

`CNC(=O)c1csc2c(C(F)(F)F)cc(OC3(C)CN(C(=O)OCCOC(F)(F)F)C3)nc12` [Example 254, 2-(Trifluoromethoxy)ethyl 3-methyl-3-((3-(methylcarbamoyl)-7-(trifluoromethyl)thieno[3,2-b]pyridin-5-yl)oxy)azetidine-1-carboxylate] and `CNC(=O)c1csc2c(C(F)(F)F)cc(OC3CN(C(=O)OCCOC(F)(F)F)C3)nc12` [Example 256, 2-(Trifluoromethoxy)ethyl 3-((3-(methylcarbamoyl)-7-(trifluoromethyl)thieno[3,2-b]pyridin-5-yl)oxy)azetidine-1-carboxylate] cannot be ordered by IC50: under 0.1 µM for the first, under 0.1 µM for the second.

First: CNC(=O)c1csc2c(C(F)(F)F)cc(OC3(C)CN(C(=O)OC(C)(C)C)C3)nc12 [Example 269, tert-Butyl 3-methyl-3-((3-(methylcarbamoyl)-7-(trifluoromethyl)thieno[3,2-b]pyridin-5-yl)oxy)azetidine-1-carboxylate]
Second: CNC(=O)c1csc2c(C(F)(F)F)cc(C3CC4(C3)CN(C(=O)OC(C)(C)C)C4)nc12 [Example 574, tert-Butyl 6-(3-(methylcarbamoyl)-7-(trifluoromethyl)thieno[3,2-b]pyridin-5-yl)-2-azaspiro[3.3]heptane-2-carboxylate]
The IC50 of the first is higher: 0.1 to 1 µM for the first, under 0.1 µM for the second. The second is the more potent here.

First: COC(=O)c1csc2c(C(F)(F)F)cc(C3CCN(C(=O)OC(C)(C)C)CC3)nc12 [Example 274, Methyl 5-(1-(tert-butoxycarbonyl)piperidin-4-yl)-7-(trifluoromethyl)thieno[3,2-b]pyridine-3-carboxylate]
Second: CNC(=O)c1csc2c(C(F)(F)F)cc(C3CCN(C(=O)O[C@@H](C)C4CC4)CC3)nc12 [Example 566, (S)-1-Cyclopropylethyl 4-(3-(methylcarbamoyl)-7-(trifluoromethyl)thieno[3,2-b]pyridin-5-yl)piperidine-1-carboxylate]
The IC50 of the first is higher: 0.1 to 1 µM for the first, under 0.1 µM for the second. The second is the more potent here.

`CNC(=O)c1csc2c(C(F)(F)F)cc(N3CCC(NC(=O)OCC(C)C)CC3)nc12` [Example 297, Isobutyl (1-(3-(methylcarbamoyl)-7-(trifluoromethyl)thieno[3,2-b]pyridin-5-yl)piperidin-4-yl) carbamate] and `CNC(=O)c1csc2c(C(F)(F)F)cc(N3CCC(NC(=O)OCCC#N)CC3)nc12` [Example 505, 2-Cyanoethyl (1-(3-(methylcarbamoyl)-7-(trifluoromethyl)thieno[3,2-b]pyridin-5-yl)piperidin-4-yl)carbamate] cannot be ordered by IC50: under 0.1 µM for the first, under 0.1 µM for the second.

`CNC(=O)c1csc2c(C(F)(F)F)cc(N3CC(NC(=O)OC(C)(C)C)C3)nc12` [Example 300, tert-Butyl (1-(3-(methylcarbamoyl)-7-(trifluoromethyl)thieno[3,2-b]pyridin-5-yl)azetidin-3-yl)carbamate] and `CNC(=O)c1csc2c(C(F)(F)F)cc(O[C@@H]3CCN(C(=O)OC(C)(C)C)[C@H](C)C3)nc12` [Example 373, tert-Butyl (2R,4R)-2-methyl-4-((3-(methylcarbamoyl)-7-(trifluoromethyl)thieno[3,2-b]pyridin-5-yl)oxy)piperidine-1-carboxylate] cannot be ordered by IC50: under 0.1 µM for the first, under 0.1 µM for the second.

`CNC(=O)c1csc2c(C(F)(F)F)cc(N3CC4(CN(C(=O)OC5COC5)C4)C3)nc12` [Example 339, Oxetan-3-yl 6-(3-(methylcarbamoyl)-7-(trifluoromethyl)thieno[3,2-b]pyridin-5-yl)-2,6-diazaspiro[3.3]heptane-2-carboxylate] and `CNC(=O)c1csc2c(C(F)(F)F)cc(N3CC4(CN(C(=O)OC(C)CC#N)C4)C3)nc12` (centres unmarked) [Example 350, 1-Cyanopropan-2-yl 6-(3-(methylcarbamoyl)-7-(trifluoromethyl)thieno[3,2-b]pyridin-5-yl)-2,6-diazaspiro[3.3]heptane-2-carboxylate] cannot be ordered by IC50: under 0.1 µM for the first, under 0.1 µM for the second.

`CNC(=O)c1csc2c(C(F)(F)F)cc(N3CCC(OCCN4CCC(F)(F)C4)CC3)nc12` [Example 361, 5-(4-(2-(3,3-Difluoropyrrolidin-1-yl)ethoxy)piperidin-1-yl)-N-methyl-7-(trifluoromethyl)thieno[3,2-b]pyridine-3-carboxamide] and `CNC(=O)c1csc2c(C(F)(F)F)cc(N3CCC(OC(=O)NCC4CC4)CC3)nc12` [Example 474, 1-(3-(Methylcarbamoyl)-7-(trifluoromethyl)thieno[3,2-b]pyridin-5-yl)piperidin-4-yl (cyclopropylmethyl)carbamate] cannot be ordered by IC50: under 0.1 µM for the first, under 0.1 µM for the second.

`CNC(=O)c1csc2c(C(F)(F)F)c(C)c(OC3CCN(C(=O)OC(C)(C)C)CC3)nc12` [Example 389, tert-Butyl 4-((6-methyl-3-(methylcarbamoyl)-7-(trifluoromethyl)thieno[3,2-b]pyridin-5-yl)oxy)piperidine-1-carboxylate] and `CNC(=O)c1csc2c(C(F)(F)F)c(C)c(OC3CCN(C(=O)OCCOC(F)(F)F)CC3)nc12` [Example 390, 2-(Trifluoromethoxy)ethyl 4-((6-methyl-3-(methylcarbamoyl)-7-(trifluoromethyl)thieno[3,2-b]pyridin-5-yl)oxy)piperidine-1-carboxylate] cannot be ordered by IC50: under 0.1 µM for the first, under 0.1 µM for the second.

First: CNC(=O)c1c(C)sc2c(C(F)(F)F)cc(N3CCN(CC(=O)NC(C)C)CC3)nc12 [Example 408, 5-(4-(2-(Isopropylamino)-2-oxoethyl)piperazin-1-yl)-N,2-dimethyl-7-(trifluoromethyl)thieno[3,2-b]pyridine-3-carboxamide]
Second: CNC(=O)c1c(C)sc2c(C(F)(F)F)cc(N3CCC(OC(=O)NCC4CC4)CC3)nc12 [Example 415, 1-(2-Methyl-3-(methylcarbamoyl)-7-(trifluoromethyl)thieno[3,2-b]pyridin-5-yl)piperidin-4-yl (cyclopropylmethyl)carbamate]
The IC50 of the first is higher: 0.1 to 1 µM for the first, under 0.1 µM for the second. The second is the more potent here.

First: CC(C)NC(=O)c1csc2c(C(F)(F)F)cc(N3CCC(NC4CCC(C(F)(F)F)CC4)C3)nc12 (centres unmarked) [Example 419, N-Isopropyl-7-(trifluoromethyl)-5-(3-((4-(trifluoromethyl)cyclohexyl)amino)pyrrolidin-1-yl)thieno[3,2-b]pyridine-3-carboxamide]
Second: CNC(=O)c1csc2c(C(F)(F)F)cc(N3CC[C@@H](OC(=O)NC(C)C)[C@H](F)C3)nc12 [Example 495, (3R,4R)-3-Fluoro-1-(3-(methylcarbamoyl)-7-(trifluoromethyl)thieno[3,2-b]pyridin-5-yl)piperidin-4-yl isopropylcarbamate]
The IC50 of the first is higher: over 1 µM for the first, under 0.1 µM for the second. The second is the more potent here.

Compared with `CCNC(=O)c1csc2c(C3CC3)cc(N3CCN(CC(=O)NC(C)C)CC3)nc12` [Example 420, 7-Cyclopropyl-N-ethyl-5-(4-(2-(isopropylamino)-2-oxoethyl)piperazin-1-yl)thieno[3,2-b]pyridine-3-carboxamide], `CNC(=O)c1csc2c(C(F)F)cc(N3CCC(OC(=O)NC(C)C)CC3)nc12` [Example 452, 1-(7-(Difluoromethyl)-3-(methylcarbamoyl)thieno[3,2-b]pyridin-5-yl)piperidin-4-yl isopropylcarbamate] is lower in IC50: over 1 µM for the first, under 0.1 µM for the second. The second is the more potent here.

Compared with `CC(C)(C)NC(=O)OC1CCN(c2cc(C(F)(F)F)c3scc(C(=O)N4CCC4)c3n2)CC1` [Example 422, 1-(3-(Azetidine-1-carbonyl)-7-(trifluoromethyl)thieno[3,2-b]pyridin-5-yl)piperidin-4-yl tert-butylcarbamate], `COC(=O)c1csc2c(C(F)(F)F)cc(N3CCC(OC(=O)NCC4CC4)CC3)nc12` [Example 428, Methyl 5-(4-(((cyclopropylmethyl)carbamoyl)oxy)piperidin-1-yl)-7-(trifluoromethyl)thieno[3,2-b]pyridine-3-carboxylate] is lower in IC50: 0.1 to 1 µM for the first, under 0.1 µM for the second. The second is the more potent here.

`CNC(=O)c1csc2c(Cl)cc(N3CCC(OC(=O)NCC4CC4)CC3)nc12` [Example 449, 1-(7-Chloro-3-(methylcarbamoyl)thieno[3,2-b]pyridin-5-yl)piperidin-4-yl (cyclopropylmethyl)carbamate] and `CNC(=O)c1csc2c(C(F)(F)F)cc(N3CCC(NC(=O)OCCOC(F)(F)F)CC3)nc12` [Example 520, 2-(Trifluoromethoxy)ethyl (1-(3-(methylcarbamoyl)-7-(trifluoromethyl)thieno[3,2-b]pyridin-5-yl)piperidin-4-yl)carbamate] cannot be ordered by IC50: under 0.1 µM for the first, under 0.1 µM for the second.

Going from `CNC(=O)c1csc2c(C(F)(F)F)cc(N3CCN(Cc4nc(C(C)C)cs4)CC3)nc12` [Example 528, 5-(4-((4-Isopropylthiazol-2-yl)methyl)piperazin-1-yl)-N-methyl-7-(trifluoromethyl)thieno[3,2-b]pyridine-3-carboxamide] to `CNC(=O)c1csc2c(C(F)(F)F)cc(N3CCN(CC4CN(C(C)C)CCO4)CC3)nc12` (centres unmarked) [Example 552, 5-(4-((4-Isopropylmorpholin-2-yl)methyl)piperazin-1-yl)-N-methyl-7-(trifluoromethyl)thieno[3,2-b]pyridine-3-carboxamide trifluoroacetate], the IC50 rises from under 0.1 µM to over 1 µM. The first is the more potent here.

`CNC(=O)c1csc2c(C(F)(F)F)cc(C3CC4(C3)CN(C(=O)OCCOC(F)(F)F)C4)nc12` [Example 576, 2-(Trifluoromethoxy)ethyl 6-(3-(methylcarbamoyl)-7-(trifluoromethyl)thieno[3,2-b]pyridin-5-yl)-2-azaspiro[3.3]heptane-2-carboxylate] was tested, and the IC50 was under 0.1 µM.
